# Source: patent EP4772513A1, “PI3K-ALPHA INHIBITOR AND USE THEREOF” (TYK Medicines (Zhengzhou), Inc., priority 2023, dated 2025)
# Columns and labels:
# [1] = tested on: Human breast cancer cells SK-BR-3 (WT); experiment: Cell proliferation inhibition assay (CTG), SK-BR-3 (WT); type: cell-based; conditions: Homo sapiens, 72 h, SK-BR-3 (WT) cells, 3 days incubation, CTG readout
# Description: (§1) Cell Proliferation Inhibition Assay
# (§2) 1. Experimental Materials
# (§3) II. Experimental Protocol
# (§4) • a) Cell suspension was prepared; • b) The medium was removed from the culture flask; • c) The cells were rinsed once with PBS; • d) Trypsin was added for digestion, and the cells were centrifuged and collected; • e) The cells were resuspended in medium, counted and adjusted to an appropriate concentration; • f) 100 µL of cell suspension was added to each well of a 96-well plate. One plate was used for each cell line, which was incubated overnight in a 37 °C, 5% CO2 incubator.
# (§5) 2. Treatment of Compounds
# (§6) • a) Serial dilutions of the test compounds were prepared: The compound was prepared as a 10 mM stock solution. 18 µL of the stock solution was dissolved in 982 µL of the culture medium containing DMSO, followed by 4-fold serial dilutions in culture medium containing 0.5% DMSO to give 9 concentrations. The concentrations of the diluted compound were as follows: 180000 nM, 45000 nM, 11250 nM, 2812.5 nM, 703.13 nM, 175.78 nM, 43.95 nM, 10.99 nM, and 2.75 nM. • b) After thorough mixing, 20 µL of each compound solution was added to the cell plate containing 100 µL of cells per well. Each concentration was tested in triplicate. Final concentrations of the compound were as follows: 30000 nM, 7500 nM, 1875 nM, 468.75 nM, 117.188 nM, 29.30 nM, 7.32 nM, 1.83 nM, and 0.46 nM. • c) The cells were transferred into the incubator and incubated for 3 days.
# (§7) The cell plate was removed, 25 µL of CTG reagent was added to each well of the 96-well plate, the mixture was shook on a plate shaker at room temperature for 10 minutes, and the plate was read.
# (§8) The cell survival rate was calculated using the following formula (% Cell Survival): % Cell Survival = 100% × (OD_Sample−OD_LCave)/(OD_HC−OD_LCave) [formula] • OD_HC: Reading of the 0.1‰ DMSO control group • OD_Sample: Reading of cells treated with compound • OD_LCave: Reading of blank medium
# (§9) Analyzed by Prism: Dose-response-Inhibition - Log (inhibitor) vs response (three parameters for the best fit).
# [2] = tested on: Human breast cancer cells T47D (H1047R); experiment: Cell proliferation inhibition assay (CTG), T47D (H1047R); type: cell-based; conditions: Homo sapiens, 72 h, 3 days incubation, CTG readout
# Description: as §1, §2, §3, §4, §5, §6, §7, §8, §9
SMILES,IC50 [1] [µM],IC50 [2] [µM]
Cc1cc([C@@H](C)Nc2ccccc2C(=O)O)c2oc3c(c(=O)c2c1)CCN(c1ncccn1)C3 [Compound C175],> 5,≤ 0.5
Cc1cc([C@@H](C)Nc2ccccc2C(=O)O)c2oc3c(c(=O)c2c1)CCN(Cc1ccccc1)C3 [Compound C176],> 5,≤ 0.5
CC[C@H](C)N1CCc2c(oc3c([C@@H](C)Nc4ccccc4C(=O)O)cc(C)cc3c2=O)C1 [Compound C178],> 5,≤ 0.5
Cc1cc([C@@H](C)Nc2ccccc2C(=O)O)c2oc3c(c(=O)c2c1)CCN(c1ccccc1)C3 [Compound C180],> 5,≤ 0.5
Cc1cc([C@@H](C)Nc2ccccc2C(=O)O)c2oc3c(c(=O)c2c1)CCN(S(=O)(=O)Cc1ccccc1)C3 [Compound C181],> 5,≤ 0.5
C[C@@H](Nc1ccccc1C(=O)O)c1cc(F)cn2c(=O)c3c(nc12)CN(Cc1ccccc1)CC3 [Compound C190],> 5,0.5 to 2
Cc1cc([C@@H](C)Nc2ccccc2C(=O)O)c2nc3c(c(=O)n2c1)CCN(S(=O)(=O)c1ccccc1)C3 [Compound C191],> 5,≤ 0.5
CC(C)S(=O)(=O)N1CCc2c(nc3c([C@@H](C)Nc4ccccc4C(=O)O)cc(F)cn3c2=O)C1 [Compound C193],> 5,≤ 0.5

# Second part, the compound after the results:
IC50 [1] [µM],IC50 [2] [µM],SMILES
> 5,≤ 0.5,[2H]C([2H])([2H])n1ncc(C)c1S(=O)(=O)N1CCc2c(oc3c([C@@H](C)Nc4ccccc4C(=O)O)cc(C)cc3c2=O)C1 [Compound C177]
> 5,≤ 0.5,CC[C@@H](C)N1CCc2c(oc3c([C@@H](C)Nc4ccccc4C(=O)O)cc(C)cc3c2=O)C1 [Compound C179]
> 5,≤ 0.5,Cc1cnn(C)c1S(=O)(=O)N1CCc2c(nc3c([C@@H](C)Nc4ccccc4C(=O)O)cc(F)cn3c2=O)C1 [Compound C182]
> 5,≤ 0.5,Cc1cc([C@@H](C)Nc2ccccc2C(=O)O)c2nc3c(c(=O)n2c1)CCN(S(=O)(=O)c1c(C)cnn1C)C3 [Compound C189]
> 5,≤ 0.5,C[C@@H](Nc1ccccc1C(=O)O)c1cc(F)cn2c(=O)c3c(nc12)CN(S(=O)(=O)c1ccccc1)CC3 [Compound C192]
> 5,0.5 to 2,C[C@@H](Nc1ccccc1C(=O)O)c1cc(F)cn2c(=O)c3c(nc12)CN(c1ccccc1)CC3 [Compound C208]
